Measured values reported in patent publication US20170318812A1, “Plant and Crop Growth Regulating/Biostimulant Formulations and Methods of Use” (Arysta Lifescience North America, LLC, priority 2014, published 2017).

Test system: TRZAX Triticum aestivum (Soft wheat)
Assay: Ipfencarbazone biostimulant effect, early post emergence foliar application, greenhouse pots, plant height: wheat
Type: in vivo
Description: The original objective of this Example was to evaluate the herbicidal effect of ipfencarbazone when applied as a post emergent treatment to a range of selected crops and weeds. Unexpectedly, crop plant growth stimulation was observed. The actual species of weeds and crops are listed in the summary data tabulated below and in FIGS. 1-13. By convention each plant species has a Bayer code (5-letter name) with the scientific name for the plant referenced in FIGS. 1-13. In each Figure, each tray contains the same configuration of weeds and/or crops. In each Figure there is one replication of each treatment (six treatments in total). The top three photographs in each Figure show the Bayer Codes and bottom three photographs are aligned with the top three facilitating viewing of the same plant species. Throughout the Examples various abbreviations as conventional shorthand notation and will be appreciated by those skilled in the art. Some exemplary abbreviations include, “CV”=Co-efficient of Variation,” “LSD”=Least Significant Difference” (G/L (gram per L) AND GA/L (gram of active ingredient per L); “SC”=suspension concentrate formulation. The diluent in all treatments was water. By convention factors that are identical in all treatments (e.g. diluent and surfactant) are not listed in each treatment.
Methods: The indicated size pots (see Tables below) are filled with a specific soil, the soil properties being indicated below. The referenced crops and weeds are planted by hand in each pot. […] The experiments include six treatments each replicated three times on each crop/weed species. At a specific time after emergence each crop and weed species was treated with ipfencarbazone plus a non-ionic surfactant (NIS). In the present Example, the surfactant employed was ENERGIC™ (non-ionic surfactant). The application timing is indicated in each of the Tables (1 or 2 leaf stage) below. Ipfencarbazone plus surfactant was diluted in water and applied at a rate equivalent to about 250 L/ha. Ipfencarbazone was applied using a track sprayer. After treatment, the pots were randomized in a greenhouse. At each assessment (indicated by “days after treatment” or DAT) the height of each plant was measured. The letters next to each mean indicate the level of statistical significance.
Replications: 3, Untreated treatments: 1, Design: Randomized Complete Block (RCB), Treatment units: Treated ‘Plot’ experimental unit size, Dry Form. Unit: %, Treated ‘Plot’ experimental unit size Width: 1 meter, Treated ‘Plot’ experimental unit size Length: 1.4 meters, Application volume: 250 L/ha, Mix size: 0.15 liters, […]

[1] = TRZAX BRS327, 125 g ai/ha, 28 DA-A
[2] = TRZAX BRS327, 250 g ai/ha, 15 DA-A
[3] = TRZAX BRS327, 250 g ai/ha, 28 DA-A
[4] = TRZAX BRS327, 500 g ai/ha, 15 DA-A
[5] = TRZAX BRS327, 500 g ai/ha, 28 DA-A
[6] = TRZAX BRS327, 1000 g ai/ha, 15 DA-A
[7] = TRZAX BRS327, 1000 g ai/ha, 28 DA-A
[8] = TRZAX Iguaçú, 62.5 g ai/ha, 15 DA-A
[9] = TRZAX Iguaçú, 62.5 g ai/ha, 28 DA-A
[10] = TRZAX Iguaçú, 125 g ai/ha, 15 DA-A
[11] = TRZAX Iguaçú, 125 g ai/ha, 28 DA-A
[12] = TRZAX Iguaçú, 250 g ai/ha, 15 DA-A
[13] = TRZAX Iguaçú, 250 g ai/ha, 28 DA-A
[14] = TRZAX Iguaçú, 500 g ai/ha, 15 DA-A
[15] = TRZAX Iguaçú, 500 g ai/ha, 28 DA-A
[16] = TRZAX Iguaçú, 1000 g ai/ha, 15 DA-A
[17] = TRZAX Iguaçú, 1000 g ai/ha, 28 DA-A
[18] = TRZAX Itaipú, 62.5 g ai/ha, 15 DA-A
[19] = TRZAX Itaipú, 62.5 g ai/ha, 28 DA-A
[20] = TRZAX Itaipú, 125 g ai/ha, 15 DA-A
[21] = TRZAX Itaipú, 125 g ai/ha, 28 DA-A
[22] = TRZAX Itaipú, 250 g ai/ha, 15 DA-A
[23] = TRZAX Itaipú, 250 g ai/ha, 28 DA-A
[24] = TRZAX Itaipú, 500 g ai/ha, 15 DA-A
[25] = TRZAX Itaipú, 500 g ai/ha, 28 DA-A
[26] = TRZAX Itaipú, 1000 g ai/ha, 15 DA-A
[27] = TRZAX Itaipú, 1000 g ai/ha, 28 DA-A

Compound: CC(C)N(C(=O)n1cnn(-c2ccc(Cl)cc2Cl)c1=O)c1ccc(F)cc1F [ARY-0572-001, ipfencarbazone]
- HEIGHT, treatment mean (TRZAX BRS327, 125 g ai/ha, 15 DA-A): 27.6 a cm
- HEIGHT, percent of untreated check (APoC) [1]: (156.7%)
- HEIGHT, treatment mean [1]: 35.0 a cm
- HEIGHT, percent of untreated check (APoC) [2]: (171.4%)
- HEIGHT, treatment mean [2]: 32.0 a cm
- HEIGHT, percent of untreated check (APoC) [3]: (204.0%)
- HEIGHT, treatment mean [3]: 45.6 a cm
- HEIGHT, percent of untreated check (APoC) [4]: (130.7%)
- HEIGHT, treatment mean [4]: 24.4 a cm
- HEIGHT, percent of untreated check (APoC) [5]: (141.3%)
- HEIGHT, treatment mean [5]: 31.6 a cm
- HEIGHT, percent of untreated check (APoC) [6]: (92.9%)
- HEIGHT, treatment mean [6]: 17.3 a cm
- HEIGHT, percent of untreated check (APoC) [7]: (126.4%)
- HEIGHT, treatment mean [7]: 28.2 a cm
- HEIGHT, percent of untreated check (APoC) [8]: (158.8%)
- HEIGHT, treatment mean [8]: 24.6 a cm
- HEIGHT, percent of untreated check (APoC) [9]: (129.6%)
- HEIGHT, treatment mean [9]: 29.2 bc cm
- HEIGHT, percent of untreated check (APoC) [10]: (168.5%)
- HEIGHT, treatment mean [10]: 26.1 a cm
- HEIGHT, percent of untreated check (APoC) [11]: (133.5%)
- HEIGHT, treatment mean [11]: 30.1 be cm
- HEIGHT, percent of untreated check (APoC) [12]: (193.2%)
- HEIGHT, treatment mean [12]: 29.9 a cm
- HEIGHT, percent of untreated check (APoC) [13]: (192.1%)
- HEIGHT, treatment mean [13]: 43.3 a cm
- HEIGHT, percent of untreated check (APoC) [14]: (153.4%)
- HEIGHT, treatment mean [14]: 23.8 ab cm
- HEIGHT, percent of untreated check (APoC) [15]: (163.1%)
- HEIGHT, treatment mean [15]: 36.8 ab cm
- HEIGHT, percent of untreated check (APoC) [16]: (105.4%)
- HEIGHT, treatment mean [16]: 16.3 bc cm
- HEIGHT, percent of untreated check (APoC) [17]: (82.8%)
- HEIGHT, treatment mean [17]: 18.7 c cm
- HEIGHT, percent of untreated check (APoC) [18]: (169.2%)
- HEIGHT, treatment mean [18]: 23.8 abc cm
- HEIGHT, percent of untreated check (APoC) [19]: (154.6%)
- HEIGHT, treatment mean [19]: 37.1 a cm
- HEIGHT, percent of untreated check (APoC) [20]: (181.4%)
- HEIGHT, treatment mean [20]: 25.5 ab cm
- HEIGHT, percent of untreated check (APoC) [21]: (134.7%)
- HEIGHT, treatment mean [21]: 32.3 a cm
- HEIGHT, percent of untreated check (APoC) [22]: (223.7%)
- HEIGHT, treatment mean [22]: 31.4 a cm
- HEIGHT, percent of untreated check (APoC) [23]: (199.1%)
- HEIGHT, treatment mean [23]: 47.8 a cm
- HEIGHT, percent of untreated check (APoC) [24]: (157.7%)
- HEIGHT, treatment mean [24]: 22.2 abc cm
- HEIGHT, percent of untreated check (APoC) [25]: (100.0%)
- HEIGHT, treatment mean [25]: 24.0 a cm
- HEIGHT, percent of untreated check (APoC) [26]: (111.5%)
- HEIGHT, treatment mean [26]: 15.7 bc cm
- HEIGHT, percent of untreated check (APoC) [27]: (76.9%)
- HEIGHT, treatment mean [27]: 18.4 a cm
